The values that follow come from PMC11634579, “Network pharmacology, experimental validation and pharmacokinetics integrated strategy to reveal pharmacological mechanism of goutengsan on methamphetamine dependence” (Frontiers in Pharmacology, 2024).

On the set-up of data set [1]: method as in Ru et al., 2014. The note with it: obtained from TCMSP database; ref Ru et al., 2014; cited from earlier work.
The nature of data set [2]: Pharmacokinetics and brain tissue distribution after gavage of GTS (UPLC-MS). It counts as in vivo, Babl/c mice. The following applies: mice. How it is done: Animal experiments: Babl/c mice weighing 18–22 g (6–8 weeks old) with equal numbers of males and females, were provided by the Experimental Animal Center of Southern Medical University. The mice were maintained at room temperature (20 ± 2) °C, humidity (60 ± 5)%, 12 h light cycles, and provided an ad libitum diet. Thirty mice were randomly divided into 0.5, 2, 4, 6 and 9 h groups, with 6 mice each. An infusion at concentration of 2.75 g of GTS crude drug/mL was obtained, and the drug was administered by gavage at a dose of 2 mL GTS infusion drug/kg. After 0.5, 2, 4, 6 and 9 h of administration, the plasma and brain tissues in the 0.5, 2, 4, 6 and 9 h groups were collected. The plasma and brain tissue samples were processed in accordance with biological sample processing procedures.
Establishment of UPLC-MS method: An LCMS-8050 liquid chromatography mass spectrometer (Shimadzu, Japan) was operated with a horizon C18 column (100 × 2.1 mm, 3 µm). The mobile phase was 0.1% formic acid in water (A) - acetonitrile (B), and the gradient elution was 0–8 min, 10%–50% B; 8–9 min, 50%–10% B; 9–11 min, 10% B. The column temperature was 30°C, the injection volume was 5 μL, and flow rate was 0.4 mL min^−1. The mass spectrometry conditions included HPLC-MS/MS in […] full-scan and sub-ion scanning modes, an electrospray ionization source (ESI), positive and negative ion mode detection, and nebulizing gas of nitrogen (N2). The zeroed gas flow rate was 3 L min^−1, desolventization temperature was 526°C, and DL temperature was 250°C. Then the parent ion, daughter ion, collision energy, and polarity of the above components were determined (Table 2).
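For BBB (blood–brain–barrier) in this document: unitless TCMSP predicted score with screening cut-off BBB at least 0.3.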

Take `COc1cc(O)cc2c1[C@@H]1Oc3c(ccc(O)c3CC=C(C)C)[C@@H]1CO2` [1-methoxyphaseollidin]: in data set [1], the “BBB (blood–brain–barrier)” value is on record as 0.48 and the “OB% (oral bioavailability)” value is recorded as 69.98%.
Regarding `COc1ccc(C2COc3c(ccc4c3C=CC(C)(C)O4)C2)c(O)c1O` (centres unmarked) [3′-hydroxy-4′-O-methylglabridin], in data set [1], the “BBB (blood–brain–barrier)” value was 0.73 and the “OB% (oral bioavailability)” value is recorded as 43.71%.
Turning to `COc1c(O)ccc(C2COc3c(ccc4c3C=CC(C)(C)O4)C2)c1O` (centres unmarked) [3′-methoxyglabridin], in data set [1], the “BBB (blood–brain–barrier)” value was 0.47 and the “OB% (oral bioavailability)” value is 46.16%.
For `COc1c2c(cc3oc(C)cc(=O)c13)OC(C(C)(C)O[C@@H]1O[C@H](CO)[C@@H](O)[C@H](O)[C@H]1O)C2` (some centres unmarked) [5-O-Methylviscumaboloside], the “exposure in plasma and brain” value in data set [2] (after oral administration of GTS) is “exposed in the plasma and brain”. In addition, the “time at which concentration in brain peaked” value in data set [2] (gavage of GTS infusion (2.75 g crude drug/mL, 2 mL/kg), sampling 0.5, 2, 4, 6, 9 h) is recorded as 6 h. Moreover, in data set [1], the “BBB (blood–brain–barrier)” value was 0.56 and the “OB% (oral bioavailability)” value is on record as 32.47%.
Consider `CC(C)[C@@H](C)/C=C/[C@@H](C)[C@H]1CC[C@H]2C3=CC[C@H]4C[C@@H](O)CC[C@]4(C)[C@H]3CC[C@]12C` [5-dihydroergosterol], for which, in data set [1], the “BBB (blood–brain–barrier)” value is listed as 0.91 and the “OB% (oral bioavailability)” value was 43.51%.
As for `CCCCC[C@H](O)CC(=O)CCc1ccc(O)c(OC)c1` [6-Gingerol], in data set [1], the “BBB (blood–brain–barrier)” value is given as 1.22 and the “OB% (oral bioavailability)” value is 61.22%.
For the compound `COc1ccc2c(=O)c(-c3ccccc3)c(C)oc2c1` [7-methoxy-2-methyl isoflavone], in data set [1], the “BBB (blood–brain–barrier)” value is on record as 0.56 and the “OB% (oral bioavailability)” value was 42.56%.
Consider `CCCCCCC=CCC=CCCCCCCCCC(=O)O` [10,13-eicosadienoic acid], for which, in data set [1], the “BBB (blood–brain–barrier)” value is 0.82 and the “OB% (oral bioavailability)” value is reported as 39.99%.
On to `CCC(CC[C@@H](C)[C@H]1CC[C@H]2[C@@H]3CCC4=CC(=O)CC[C@]4(C)[C@H]3CC[C@]12C)C(C)C` (some centres unmarked) [24-ethylcholest-4-en-3-one], for which, in data set [1], the “BBB (blood–brain–barrier)” value is recorded as 1.22 and the “OB% (oral bioavailability)” value is 36.08%.
For `CC(C)=CCOc1c2occc2cc2ccc(=O)oc12` [Ammidin], in data set [1], the “BBB (blood–brain–barrier)” value was 0.92 and the “OB% (oral bioavailability)” value is recorded as 34.55%.
As for `C=C(C(=O)OC1CC2NC(C1)C1OC21)c1ccccc1` (centres unmarked) [Aponorhyoscine], in data set [1], the “BBB (blood–brain–barrier)” value is listed as 0.40 and the “OB% (oral bioavailability)” value is 66.65%.
Take `CCCCC/C=C\C/C=C\C/C=C\C/C=C\CCCC(=O)O` [Arachidonate]: in data set [1], the “BBB (blood–brain–barrier)” value was 0.58 and the “OB% (oral bioavailability)” value is on record as 45.57%.
With `CC[C@H](CC[C@@H](C)[C@H]1CC[C@H]2[C@@H]3CC=C4C[C@@H](O)CC[C@]4(C)[C@H]3CC[C@]12C)C(C)C` [Beta-sitosterol], in data set [1], the “BBB (blood–brain–barrier)” value was 0.99.
Turning to `CCCCCCCCOC(=O)c1ccccc1C(=O)OCCCC` [Butyl octyl phthalate], in data set [1], the “BBB (blood–brain–barrier)” value is on record as 0.60 and the “OB% (oral bioavailability)” value is 43.74%.
For `COc1cc2c(cc1OC)[C@H]1[C@@H](C)c3ccc4c(c3CN1CC2)OCO4` [Cavidine], in data set [1], the “BBB (blood–brain–barrier)” value was 0.63 and the “OB% (oral bioavailability)” value was 35.64%.
Consider `CC[C@@H](CC[C@@H](C)[C@H]1CC[C@H]2[C@@H]3CC=C4C[C@@H](O)CC[C@]4(C)[C@H]3CC[C@]12C)C(C)C` [Clionasterol], for which the “BBB (blood–brain–barrier)” value in data set [1] is recorded as 1.14.
As to `C=C[C@H]1CN2CC[C@]3(C(=O)Nc4ccccc43)[C@@H]2C[C@@H]1/C(=C\OC)C(=O)OC` [Corynoxeine], in data set [1], the “BBB (blood–brain–barrier)” value is listed as 0.50 and the “OB% (oral bioavailability)” value is recorded as 57.13%.
With `CC(C)=CCC[C@@H](C)[C@H]1CC[C@@]2(C)[C@@H]3CC[C@H]4C(C)(C)[C@@H](O)CC[C@@]45C[C@@]35CC[C@]12C` [Cycloartenol], the “BBB (blood–brain–barrier)” value in data set [1] was 1.33.
With `COc1cc(CNC(=O)CCCCCCC(C)C)ccc1O` [Dihydrocapsaicin], in data set [1], the “BBB (blood–brain–barrier)” value is recorded as 0.47 and the “OB% (oral bioavailability)” value is 47.07%.
Regarding `CC(C)[C@@H](C)/C=C/[C@@H](C)[C@H]1CC[C@@H]2[C@]1(C)CC[C@H]1[C@]23C=C[C@]2(C[C@@H](O)CC[C@]12C)OO3` [Ergosterol peroxide], in data set [1], the “BBB (blood–brain–barrier)” value is listed as 0.34 and the “OB% (oral bioavailability)” value is on record as 40.36%.
As for `O=c1oc2ccccc2c2oc3ccccc3c(=O)c12` [Frutinone A], in data set [1], the “BBB (blood–brain–barrier)” value is 0.46 and the “OB% (oral bioavailability)” value is given as 65.90%.
In the case of `CC(C)=CCc1c(O)cc(O)c2c1O[C@H](c1ccccc1)CC2=O` [Glabranin], in data set [1], the “BBB (blood–brain–barrier)” value is 0.31 and the “OB% (oral bioavailability)” value is on record as 52.90%.
With `CC1(C)C=Cc2c(ccc3c2OC[C@@H](c2ccc(O)cc2O)C3)O1` [Glabridin], in data set [1], the “BBB (blood–brain–barrier)” value was 0.36 and the “OB% (oral bioavailability)” value was 53.25%.
Take `CC1(C)CC[C@]2(C(=O)O)CC[C@]3(C)C(=CC[C@@H]4[C@@]5(C)CC[C@H](O)[C@@](C)(CO)[C@@H]5CC[C@]43C)[C@@H]2C1` [Hederagenin]: the “BBB (blood–brain–barrier)” value in data set [1] is reported as 0.96.
As for `CC[C@H]1CN2CCc3c([nH]c4ccccc34)[C@H]2C[C@@H]1/C(=C\OC)C(=O)OC` [Hirsutine], in data set [1], the “BBB (blood–brain–barrier)” value is 0.78 and the “OB% (oral bioavailability)” value was 34.44%.
As to `CCCCCCCCCCCCCCC=CCCCC(=O)O` [Icos-5-enoic acid], in data set [1], the “BBB (blood–brain–barrier)” value is listed as 1.09 and the “OB% (oral bioavailability)” value was 30.70%.
Regarding `Oc1ccc2c(c1)OC[C@H]1c3cc4c(cc3O[C@@H]21)OCO4` [Inermin], in data set [1], the “BBB (blood–brain–barrier)” value was 0.36 and the “OB% (oral bioavailability)” value is 65.83%.
With `Oc1ccc2c(c1)OC[C@H]1c3cc4c(cc3O[C@@H]21)OCO4` [Inermine], in data set [1], the “BBB (blood–brain–barrier)” value is given as 0.40 and the “OB% (oral bioavailability)” value is given as 75.18%.
Consider `CC(C)=CCOc1c2ccoc2cc2oc(=O)ccc12` [Isoimperatorin], for which, in data set [1], the “BBB (blood–brain–barrier)” value was 0.66 and the “OB% (oral bioavailability)” value is 45.46%.
Turning to `CC[C@H]1CN2CC[C@@]3(C(=O)Nc4ccccc43)[C@@H]2C[C@@H]1/C(=C\OC)C(=O)OC` [Isorhyncophylline], in data set [1], the “BBB (blood–brain–barrier)” value is 0.33 and the “OB% (oral bioavailability)” value was 47.31%.
Consider `CCCCC/C=C\C/C=C\CCCCCCCC(=O)OCC` [Mandenol], for which, in data set [1], the “BBB (blood–brain–barrier)” value is on record as 1.14 and the “OB% (oral bioavailability)” value is recorded as 42.00%.
In the case of `CCCCCC=CCC=CCCCCCCCCCC(=O)OC` [Methyl icosa-11,14-dienoate], in data set [1], the “BBB (blood–brain–barrier)” value was 1.10 and the “OB% (oral bioavailability)” value is reported as 39.67%.
For `CC1(C)C=Cc2c(ccc([C@@H]3COc4cc(O)ccc4C3)c2O)O1` [Phaseolinisoflavan], in data set [1], the “BBB (blood–brain–barrier)” value is given as 0.46 and the “OB% (oral bioavailability)” value is reported as 32.01%.
For `COc1c2ccoc2c(OCC=C(C)C)c2oc(=O)ccc12` [Phellopterin], in data set [1], the “BBB (blood–brain–barrier)” value is listed as 0.48 and the “OB% (oral bioavailability)” value is listed as 40.19%.
For `COc1c2ccoc2c(OCC=C(C)C)c2oc(=O)ccc12` [Phelloptorin], in data set [1], the “BBB (blood–brain–barrier)” value is 0.43 and the “OB% (oral bioavailability)” value is 43.39%.
Consider `CC(C)=CCc1c2ccoc2c(O)c2oc(=O)ccc12` [Prangenidin], for which, in data set [1], the “BBB (blood–brain–barrier)” value was 0.50 and the “OB% (oral bioavailability)” value is on record as 36.31%.
In the case of `CC1(C)C=Cc2c(ccc3c2OC[C@H]2c4ccc(O)cc4O[C@@H]32)O1` [Shinpterocarpin], in data set [1], the “BBB (blood–brain–barrier)” value is 0.68 and the “OB% (oral bioavailability)” value is reported as 80.30%.
On to `CC[C@H](CC[C@@H](C)[C@H]1CC[C@H]2[C@@H]3CC=C4C[C@@H](O)CC[C@]4(C)[C@H]3CC[C@]12C)C(C)C` [Sitosterol], for which, in data set [1], the “BBB (blood–brain–barrier)” value is given as 0.87.
As to `CC[C@H](/C=C/[C@@H](C)[C@H]1CC[C@H]2[C@@H]3CC=C4C[C@@H](O)CC[C@]4(C)[C@H]3CC[C@]12C)C(C)C` [Stigmasterol], in data set [1], the “BBB (blood–brain–barrier)” value was 1.00 and the “OB% (oral bioavailability)” value was 43.83%.
Consider `COC(=O)C1=CO[C@@H](C)[C@@H]2CN3CCc4c([nH]c5ccccc45)[C@@H]3C[C@H]12` [Tetrahydroalstonine], for which, in data set [1], the “BBB (blood–brain–barrier)” value is listed as 0.33 and the “OB% (oral bioavailability)” value was 32.42%.
As to `CC1(C)C=Cc2cc([C@@H]3CC(=O)c4ccc5c(c4O3)C=CC(C)(C)O5)ccc2O1` [Xambioona], in data set [1], the “BBB (blood–brain–barrier)” value is recorded as 0.52 and the “OB% (oral bioavailability)” value was 54.85%.
With `C=C[C@H]1CN2CCc3c([nH]c4ccccc34)[C@H]2C[C@@H]1/C(=C\OC)C(=O)OC` [delta (sup 18)-Hirsutine], in data set [1], the “BBB (blood–brain–barrier)” value is listed as 0.76 and the “OB% (oral bioavailability)” value is given as 41.64%.
For the compound Medicarpin, in data set [1], the “BBB (blood–brain–barrier)” value is 0.53 and the “OB% (oral bioavailability)” value was 49.22%.
